The text below walks through data of ChEMBL document CHEMBL4354870, “GSK2818713, a Novel Biphenylene Scaffold-Based Hepatitis C NS5A Replication Complex Inhibitor with Broad Genotype Coverage” (J Med Chem, 2020).

Series [1] can be described thus: Oral availability in Han Wistar rat at 5 mg/kg by LC-MS/MS analysis. Particulars: in vivo. Type of series: ADME, organism-based.
Series [2] is described as follows: AUC (0 to t) in Han Wistar rat at 5 mg/kg, po by LC-MS/MS analysis. Format: ADME, organism-based. To be noted: in vivo.
Series [3] can be described thus: AUC (0 to infinity) in Han Wistar rat at 5 mg/kg, po by LC-MS/MS analysis. Type of series: ADME, organism-based. On the set-up: dose 5 mg/kg, time infinity, route oral. Particulars: in vivo.
A short description of series [4]: Half life in Han Wistar rat at 5 mg/kg, po by LC-MS/MS analysis. Type of series: ADME, organism-based. Particulars: in vivo.
Series [5] in a line: Cmax in Han Wistar rat at 5 mg/kg, po by LC-MS/MS analysis. Type of series: ADME, organism-based. Particulars: in vivo. Set-up: dose 5 mg/kg, route oral.
The nature of series [6]: Tmax in Han Wistar rat at 5 mg/kg, po by LC-MS/MS analysis. Type of series: ADME, organism-based. Particulars: in vivo.
The target in series [7] is T1, Nonstructural protein 5A (Hepatitis C virus) (UniProt Q5L478).
T1 sequence (whole entry): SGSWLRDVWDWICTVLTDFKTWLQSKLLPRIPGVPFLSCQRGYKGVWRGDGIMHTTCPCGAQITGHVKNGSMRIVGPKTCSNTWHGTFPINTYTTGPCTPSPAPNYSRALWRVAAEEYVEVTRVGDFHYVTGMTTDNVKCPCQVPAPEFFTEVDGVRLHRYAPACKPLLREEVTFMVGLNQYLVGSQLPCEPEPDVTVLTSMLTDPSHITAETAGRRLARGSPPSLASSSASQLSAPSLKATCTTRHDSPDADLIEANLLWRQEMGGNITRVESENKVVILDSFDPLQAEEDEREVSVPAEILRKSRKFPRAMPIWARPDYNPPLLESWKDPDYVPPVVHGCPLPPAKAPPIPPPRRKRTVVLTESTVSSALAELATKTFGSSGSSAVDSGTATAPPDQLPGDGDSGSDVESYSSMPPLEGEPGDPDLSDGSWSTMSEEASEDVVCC
Briefly: Potency index, ratio of EC50 of cpd1 to EC50 of compound for inhibition of HCV genotype 2a con NS5A infected in HuH-Lcu-Neo cells assessed as reduction in viral replication incubated for 48 hrs by luciferase reporter gene assay. Format: cell-based. To be noted: Hepatitis C virus subtype 2a.

Series [8] deals with T1, Nonstructural protein 5A (Hepatitis C virus). Briefly: Inhibition of HCV genotype 3a con NS5A infected in HuH-Lcu-Neo cells assessed as fold reduction in virus RNA level at 10 times of EC90 incubated for 21 days by luciferase reporter gene assay. Type of series: cell-based. To be noted: Hepatitis C virus subtype 3a.
For series [9] the target is unchanged. Kind of series: Inhibition of HCV NS5A infected in HuH-Lcu-Neo cells assessed as reduction in viral replication in presence of ribavirin incubated for 48 hrs by luciferase reporter gene assay. To be noted: Hepacivirus hominis. Format: cell-based. (In general: A reporter such as luciferase makes a cellular process visible.)
The target is the same in series [10]. Kind of series: Inhibition of HCV genotype 1a NS5A infected in HuH-Lcu-Neo cells assessed as log reduction in virus RNA level at 10 times of EC90 incubated for 21 days by luciferase reporter gene assay. Type of series: cell-based. To be noted: Hepatitis C virus subtype 1a.
For series [11] the target is unchanged. Briefly: Inhibition of HCV genotype 1b NS5A infected in HuH-Lcu-Neo cells assessed as log reduction in virus RNA level at 10 times of EC90 incubated for 21 days by luciferase reporter gene assay. Type of series: cell-based. To be noted: Hepatitis C virus subtype 1b.
The target is the same in series [12]. Kind of series: Potency index, ratio of EC50 of DCV to EC50 of compound for inhibition of patient-derived HCV genotype 2a NS5A infected in HuH-Lcu-Neo cells assessed as reduction in viral replication incubated for 48 hrs by luciferase reporter gene assay. Particulars: Hepatitis C virus subtype 2a. Type of series: cell-based.
The target is the same in series [13]. Briefly: Inhibition of HCV NS5A infected in HuH-Lcu-Neo cells assessed as reduction in viral replication in presence of BILN2061 incubated for 48 hrs by luciferase reporter gene assay. Type of series: cell-based. To be noted: Hepacivirus hominis.
The target is the same in series [14]. Kind of series: Potency index, ratio of EC50 of DCV to EC50 of compound for inhibition of patient-derived HCV genotype 3a NS5A infected in HuH-Lcu-Neo cells assessed as reduction in viral replication incubated for 48 hrs by luciferase reporter gene assay. To be noted: Hepatitis C virus subtype 3a. Format: cell-based.
Series [15] shares this target. Kind of series: Inhibition of HCV genotype 2a con NS5A infected in HuH-Lcu-Neo cells assessed as fold reduction in virus RNA level at 10 times of EC90 incubated for 21 days by luciferase reporter gene assay. Type of series: cell-based. To be noted: Hepatitis C virus subtype 2a.
For series [16] the target is unchanged. Kind of series: Inhibition of HCV NS5A infected in HuH-Lcu-Neo cells assessed as reduction in viral replication in presence of NM107 incubated for 48 hrs by luciferase reporter gene assay. Format: cell-based. To be noted: Hepacivirus hominis.
Series [17] has the same target. Briefly: Potency index, ratio of EC50 of DCV to EC50 of compound for inhibition of HCV genotype 2a con NS5A infected in HuH-Lcu-Neo cells assessed as reduction in viral replication incubated for 48 hrs by luciferase reporter gene assay. Format: cell-based. Particulars: Hepatitis C virus subtype 2a.
For series [18] the target is unchanged. Briefly: Potency index, ratio of EC50 of DCV to EC50 of compound for inhibition of HCV genotype 3a con NS5A infected in HuH-Lcu-Neo cells assessed as reduction in viral replication incubated for 48 hrs by luciferase reporter gene assay. Type of series: cell-based. Particulars: Hepatitis C virus subtype 3a.
Series [19] shares this target. Briefly: Inhibition of HCV NS5A infected in HuH-Lcu-Neo cells assessed as reduction in viral replication in presence of NNI incubated for 48 hrs by luciferase reporter gene assay. Type of series: cell-based. Particulars: Hepacivirus hominis.

Molecules are shown by their SMILES. Calls of active or inactive are those of the source. The calls are words filed in the database; no cut-off is given here.

`COC(=O)N[C@H](C(=O)N1[C@H](c2ncc(-c3ccc4c(c3)-c3ccc(-c5cnc([C@@H]6C[C@@H]7CCC[C@@H]7N6C(=O)[C@@H](NC(=O)OC)[C@@H](C)OC)[nH]5)cc3-4)[nH]2)C[C@@H]2CCC[C@@H]21)[C@@H](C)OC.Cl` had a bioavailability in series [1] of 41%. Besides, the AUC(0-t) in series [2] was 1250 ng·h/mL. In series [3], this compound gave an AUC(0-inf) of 1260 ng·h/mL. The same compound had a half-life in [4] of 1.7 h. In addition, the Cmax in series [5] worked out at 258 ng/mL. The Tmax in series [6] stood at 1.5 h.

On to `CN(C)[C@@H](C(=O)N1CCC[C@H]1c1ncc(-c2ccc3c(c2)-c2ccc(-c4cnc([C@@H]5CCCN5C(=O)[C@@H](c5ccccc5)N(C)C)[nH]4)cc2-3)[nH]1)c1ccccc1`, for which the Ratio EC50 in [7] was found to be 98.

As for `COC(=O)N[C@H](C(=O)N1[C@H](c2ncc(-c3ccc4c(c3)-c3ccc(-c5cnc([C@@H]6C[C@@H]7CCC[C@@H]7N6C(=O)[C@@H](NC(=O)OC)[C@@H](C)OC)[nH]5)cc3-4)[nH]2)C[C@@H]2CCC[C@@H]21)[C@@H](C)OC`, the fold change (FC) in [8] and in series [15] was 1.8 to 3.1 each time. Besides, the inhibition result in [9], in series [13], in series [16] and in [19] was “inactive” throughout. Further, the FC in series [10] is 1.8 to 3.1; in series [11], greater than 5. Further, the Ratio EC50 in series [12] turned out to be 74; in series [14], 37; in series [17], 462; in series [18] it was 20.

As usually defined, the bioavailability is dose-corrected exposure relative to a reference, in per cent. Read a low bioavailability as little systemic uptake. Broadly, the AUC(0-t) is exposure summed from dosing to a finite time, without extrapolation to infinity. A low value points to low exposure. As a reminder, the AUC(0-inf) is total exposure, with the tail of the curve extrapolated. A low value points to low exposure. Usually half-life stands for the time in which the quantity being followed falls by half. A high value points to slow loss. What is called Cmax is the maximum level reached in the sampled fluid or tissue. A word on the Tmax: it is the time from dosing to the highest level.
